Here are results for twelve molecules from ChEMBL document CHEMBL1201862, “PubChem BioAssay data set” (2004).

Among the test systems are SK-MEL-2; MCF7; MDA-N; SF-268; SK-MEL-28; COLO 205; SK-OV-3; IGROV-1; KM12; RPMI-8226; M14; SK-MEL-5; HCC 2998; SF-295; BT-549; A498; NCI-H522; CCRF-CEM; SR.
What all share (assay): inhibition of tumour cell growth, NCI panel, 48 h

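Briefly, cells in 96-well plates were exposed to five compound concentrations for 48 h, and endpoints were estimated by linear interpolation. Abbreviation: GI50, concentration required for 50% inhibition of growth.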 The source made the active and inactive calls. Rule as the data show it: active = GI50 up to about 1.1 µM and inactive = higher.

As to `Nn1c(CCCCCCCCc2nnc(COc3c(O)ccc4ccccc34)n2N)nnc1COc1c(O)ccc2ccccc12`, the GI50 in the assay with SK-MEL-2, in the assay on MCF7, in the assay with MDA-N, with SF-268, with SK-MEL-28 and in the assay with COLO 205 was > 100 µM (inactive) each time. In addition, the GI50 in the assay with SK-OV-3 is > 100 µM (inactive); in the assay with IGROV-1, > 100 µM (inactive); in the assay with KM12, > 100 µM (inactive); in the assay on RPMI-8226, 63.1 µM (inactive); with M14, > 100 µM (inactive); with SK-MEL-5 it was > 100 µM (inactive). In addition, the GI50 in the assay with HCC 2998, in the assay on SF-295, with BT-549, with A498 and in the assay on NCI-H522 was > 100 µM (inactive) throughout.

Regarding `COc1ccccc1C1SCC(=O)N1c1ccc(-c2ccc(-n3c(-c4ccccc4)nc4ccccc4c3=O)cc2)cc1` (stereo unspecified), the GI50 in the assay on SK-MEL-2, in the assay with MCF7, with MDA-N, with SF-268, in the assay on SK-MEL-28 and with COLO 205 was > 100 µM (inactive) throughout. The GI50 with SK-OV-3, in the assay with IGROV-1, in the assay on KM12, with RPMI-8226, in the assay with M14 and with SK-MEL-5 was > 100 µM (inactive) in each case. Further, the GI50 in the assay on HCC 2998, with CCRF-CEM, with SF-295, in the assay with BT-549, in the assay on A498 and with NCI-H522 was > 100 µM (inactive) each time.

As for `O=C1/C(=C/c2ccco2)N=C(c2ccccc2)N1c1ccc(S(=O)(=O)Nc2nccs2)cc1`, the GI50 in the assay with SK-MEL-2 was > 100 µM (inactive); in the assay on MCF7, 61.4 µM (inactive); in the assay on MDA-N it was > 100 µM (inactive); with SF-268, > 100 µM (inactive); in the assay with COLO 205, > 100 µM (inactive); with SK-OV-3, > 100 µM (inactive). Moreover, the GI50 with IGROV-1 was > 100 µM (inactive); with KM12, > 100 µM (inactive); in the assay with RPMI-8226, 41.7 µM (inactive); in the assay on M14, > 100 µM (inactive); with SK-MEL-5, 87.9 µM (inactive); in the assay on HCC 2998, > 100 µM (inactive). For the same molecule, the GI50 in the assay on CCRF-CEM was 75.7 µM (inactive); in the assay with SR, > 100 µM (inactive); in the assay on SF-295 it was > 100 µM (inactive); in the assay with BT-549 it was > 100 µM (inactive); in the assay on NCI-H522, 30.9 µM (inactive).

Turning to `COc1ccc(/N=C/N(C)C)c(C)c1`, the GI50 in the assay with SK-MEL-2 was 5.15 µM (inactive); in the assay with MCF7, 8.26 µM (inactive); in the assay with MDA-N, 6.18 µM (inactive); with SF-268, 19 µM (inactive); in the assay on SK-MEL-28, 12.6 µM (inactive); in the assay with COLO 205, 10.5 µM (inactive). Moreover, the GI50 in the assay with SK-OV-3 is 18.7 µM (inactive); in the assay on IGROV-1, 9.48 µM (inactive); in the assay on RPMI-8226, > 100 µM (inactive); in the assay with M14, 13.6 µM (inactive); in the assay with SK-MEL-5 it was 3.01 µM (inactive); in the assay on CCRF-CEM, 3.28 µM (inactive). Also, the GI50 with SF-295 is 11 µM (inactive); in the assay on BT-549 it was 18.3 µM (inactive); in the assay with A498, 18.1 µM (inactive); in the assay with NCI-H522 it was 2.43 µM (inactive).

As for `CCOC(=O)C(CCSC)(CCSC)C(=O)OCC`, the GI50 in the assay on SK-MEL-2, with MCF7, in the assay on MDA-N, in the assay with SF-268, with SK-MEL-28 and in the assay on COLO 205 was > 100 µM (inactive) each time. Also, the GI50 in the assay with SK-OV-3 was 27.7 µM (inactive); in the assay on IGROV-1, > 100 µM (inactive); in the assay with KM12, > 100 µM (inactive); with RPMI-8226, > 100 µM (inactive); in the assay on M14, > 100 µM (inactive); in the assay on SK-MEL-5 it was > 100 µM (inactive). Also, the GI50 in the assay with HCC 2998, in the assay with CCRF-CEM, in the assay on SF-295, in the assay with BT-549, with A498 and with NCI-H522 was > 100 µM (inactive) each time.

`Clc1ccc2nc3[nH]nc(Cl)c3nc2c1`: the GI50 with SK-MEL-2 is 40.6 µM (inactive); in the assay with MCF7, 59.8 µM (inactive); in the assay with MDA-N, 76.9 µM (inactive); with SF-268, 47.9 µM (inactive); with SK-MEL-28, 84.7 µM (inactive); in the assay with COLO 205, 52.5 µM (inactive). Also, the GI50 with SK-OV-3 was 41.9 µM (inactive); in the assay on KM12 it was 59.3 µM (inactive); in the assay on RPMI-8226, 47.4 µM (inactive); in the assay on M14, 70.3 µM (inactive); in the assay on SK-MEL-5 it was 27.1 µM (inactive); in the assay on HCC 2998, 38.4 µM (inactive). For the same molecule, the results for the GI50 in the assay on SF-295, in the assay with BT-549 and with A498 were 72.6 µM (inactive), 28.4 µM (inactive) and 46.2 µM (inactive), respectively.

`CC(=O)NC1C(OCC(=O)NCCNc2ccc([N+](=O)[O-])c3[nH]c4ccccc4c(=O)c23)C(O)C(CO)OC1(C)OCc1ccccc1` (stereo unspecified): the GI50 in the assay with SK-MEL-2, in the assay with MCF7, in the assay with MDA-N, with SF-268, in the assay on COLO 205 and in the assay with SK-OV-3 was > 100 µM (inactive) throughout. The GI50 in the assay with IGROV-1, with KM12, in the assay on RPMI-8226, with M14, in the assay on SK-MEL-5 and in the assay on HCC 2998 was > 100 µM (inactive) each time. The GI50 with CCRF-CEM, in the assay on SF-295, with BT-549, in the assay on A498 and with NCI-H522 was > 100 µM (inactive) throughout.

Regarding `CCCCSC1=N/C(=C\c2ccco2)C(=O)N1`, the GI50 in the assay on SK-MEL-2 is 54.8 µM (inactive); in the assay on MCF7, 0.687 µM (active); with MDA-N it was 42.4 µM (inactive); with SF-268, 41.3 µM (inactive); in the assay with SK-MEL-28, 42.5 µM (inactive); with COLO 205, 26.1 µM (inactive). For the same molecule, the GI50 is > 100 µM (inactive) in the assay on SK-OV-3; 36.6 µM (inactive) in the assay on IGROV-1; 37.6 µM (inactive) with KM12; 34.1 µM (inactive) in the assay on RPMI-8226; 53.8 µM (inactive) in the assay on M14; 35.4 µM (inactive) in the assay on SK-MEL-5. Further, the GI50 in the assay with HCC 2998 was 30 µM (inactive); in the assay with CCRF-CEM, 24.2 µM (inactive); in the assay with SF-295, 45.5 µM (inactive); in the assay on BT-549 it was 33.2 µM (inactive); in the assay on A498 it was 24.2 µM (inactive); in the assay with NCI-H522, 28.9 µM (inactive).

For `Clc1ccc(/C=C/c2nc(Cl)c(-c3ccc(Cl)cc3)c(Cl)n2)cc1`, the GI50 in the assay on SK-MEL-2 is 25.6 µM (inactive); with MCF7, 45.5 µM (inactive); in the assay on MDA-N, 59.4 µM (inactive); with SF-268, > 100 µM (inactive); in the assay with SK-MEL-28, > 100 µM (inactive); in the assay with COLO 205, > 100 µM (inactive). Moreover, the GI50 in the assay on SK-OV-3 is > 100 µM (inactive); in the assay with IGROV-1, 60 µM (inactive); in the assay with KM12, > 100 µM (inactive); in the assay with RPMI-8226, 23.8 µM (inactive); in the assay with M14 it was 29.7 µM (inactive); with SK-MEL-5, 38.8 µM (inactive). The GI50 in the assay with CCRF-CEM was 20.4 µM (inactive); in the assay with SF-295 it was 52.1 µM (inactive); in the assay with BT-549, > 100 µM (inactive); with A498 it was 50.6 µM (inactive); in the assay on NCI-H522 it was 31.5 µM (inactive).

As for `CCNC1=C(NC(=O)CC)C(=O)c2ccccc2C1=O`, the GI50 in the assay with MCF7 is > 100 µM (inactive); in the assay on MDA-N, > 100 µM (inactive); in the assay on SF-268, > 100 µM (inactive); in the assay on SK-MEL-28 it was > 100 µM (inactive); in the assay on COLO 205, 46.5 µM (inactive); in the assay with SK-OV-3, > 100 µM (inactive). The GI50 in the assay with IGROV-1 was > 100 µM (inactive); with KM12 it was > 100 µM (inactive); in the assay on RPMI-8226 it was > 100 µM (inactive); in the assay with M14, 31.7 µM (inactive); in the assay on SK-MEL-5, 54.1 µM (inactive); in the assay on HCC 2998 it was 73.1 µM (inactive). Besides, the GI50 was 56 µM (inactive) in the assay on CCRF-CEM; > 100 µM (inactive) in the assay on SR; > 100 µM (inactive) with SF-295; > 100 µM (inactive) with BT-549; 46.1 µM (inactive) in the assay on NCI-H522.

Regarding `CN(CCO)CCCC1COc2ccccc2O1` (stereo unspecified), the GI50 in the assay with MCF7 was > 100 µM (inactive); with MDA-N, > 100 µM (inactive); in the assay with SF-268, 20.7 µM (inactive); in the assay on SK-MEL-28, > 100 µM (inactive); in the assay on COLO 205, > 100 µM (inactive); in the assay on SK-OV-3 it was > 100 µM (inactive). The GI50 in the assay on IGROV-1, in the assay on M14, in the assay on SK-MEL-5, with HCC 2998, in the assay on CCRF-CEM and in the assay with SR was > 100 µM (inactive) throughout. The GI50 in the assay with SF-295 is 51.3 µM (inactive); in the assay on BT-549, > 100 µM (inactive); in the assay with NCI-H522 it was > 100 µM (inactive).

`COC(CCC[N+](C)(C)C)CC[N+](C)(C)C` (stereo unspecified): the GI50 in the assay with MCF7, in the assay on MDA-N, in the assay on SF-268, in the assay with SK-MEL-28, with COLO 205 and with SK-OV-3 was > 100 µM (inactive) in each case. The GI50 in the assay with IGROV-1, in the assay with RPMI-8226, in the assay on M14, in the assay on SK-MEL-5, with HCC 2998 and in the assay with CCRF-CEM was > 100 µM (inactive) throughout. Further, the GI50 with SR, in the assay with SF-295, with BT-549 and with NCI-H522 was > 100 µM (inactive) in each case.
